Reference: ChEMBL document CHEMBL6071156 (Eur J Med Chem, 2024)
The source made the active and inactive calls. The calls are words filed in the database; no cut-off is given here.

Tests used:
[1] = target: T1, CYP1A (Homo sapiens, UniProt P04798+P05177); test: Inhibition of CYP1A (unknown origin); assay type: ADME, protein assay
T1 sequence (P04798 whole entry): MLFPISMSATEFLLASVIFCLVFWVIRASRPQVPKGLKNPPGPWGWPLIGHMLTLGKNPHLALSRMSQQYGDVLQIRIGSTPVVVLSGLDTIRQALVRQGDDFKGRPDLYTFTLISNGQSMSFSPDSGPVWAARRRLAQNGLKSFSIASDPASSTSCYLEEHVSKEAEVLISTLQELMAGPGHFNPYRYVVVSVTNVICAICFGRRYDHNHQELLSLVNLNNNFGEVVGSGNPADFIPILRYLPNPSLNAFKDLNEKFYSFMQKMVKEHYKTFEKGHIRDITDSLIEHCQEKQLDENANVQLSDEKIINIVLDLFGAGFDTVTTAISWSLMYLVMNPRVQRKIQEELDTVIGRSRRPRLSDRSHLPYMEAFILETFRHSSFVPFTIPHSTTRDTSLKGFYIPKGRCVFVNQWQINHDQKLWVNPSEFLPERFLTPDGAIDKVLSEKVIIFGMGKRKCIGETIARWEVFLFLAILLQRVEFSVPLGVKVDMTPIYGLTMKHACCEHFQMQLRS
T1 sequence (P05177 whole entry): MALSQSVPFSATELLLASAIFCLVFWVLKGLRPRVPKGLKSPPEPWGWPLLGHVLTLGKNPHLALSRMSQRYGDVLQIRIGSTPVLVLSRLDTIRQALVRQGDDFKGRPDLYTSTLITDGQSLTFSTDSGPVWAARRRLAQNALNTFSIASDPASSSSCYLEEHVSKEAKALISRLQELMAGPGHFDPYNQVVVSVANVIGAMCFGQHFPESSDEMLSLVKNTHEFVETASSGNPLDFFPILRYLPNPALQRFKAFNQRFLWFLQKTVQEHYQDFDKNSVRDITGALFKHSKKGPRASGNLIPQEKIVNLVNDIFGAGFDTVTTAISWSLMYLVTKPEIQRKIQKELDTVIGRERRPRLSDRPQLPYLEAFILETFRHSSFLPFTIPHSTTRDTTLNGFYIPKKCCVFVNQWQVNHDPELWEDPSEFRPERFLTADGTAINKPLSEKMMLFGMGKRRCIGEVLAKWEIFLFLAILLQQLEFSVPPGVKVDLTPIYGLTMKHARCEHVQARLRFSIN

[2] = test system: Chikungunya virus; test: Antiviral activity against CHIKV S27 in green monkey Vero 76 cells assessed as reduction in virus-induced cytopathic effect; assay type: functional, organism-based; conditions: S27, Vero 76
[3] = target: Polyprotein P1234 (Chikungunya virus (strain S27-African prototype) (CHIKV)) (UniProt Q8JUX6); conditions: dose 0.27-600 µM, time 2000-8000 sec
[4] = target: Polyprotein P1234 (Chikungunya virus (strain S27-African prototype) (CHIKV)) (UniProt Q8JUX6); conditions: dose 0.27-600 µM
[5] = test system: Chikungunya virus; test: Antiviral activity against CHIKV infected in C57BL/6 mouse assessed as virus titers at 100 mg/kg/day, ip measured after 6 days post infection (reference value: 5.3+/0.3); assay type: functional; conditions: time 6 day
[6] = test system: Chikungunya virus; test: Antiviral activity against CHIKV infected in C57BL/6 mouse assessed as footpad swelling at 100 mg/kg/day, ip measured after 6 days post infection (reference value: 40.9+/-12.4); assay type: functional; conditions: time 6 day
[7] = target: T2, Cytochrome P450 2B6 (Homo sapiens, UniProt P20813); test: Inhibition of CYP2B6 (unknown origin); assay type: ADME
T2 sequence (P20813 whole entry): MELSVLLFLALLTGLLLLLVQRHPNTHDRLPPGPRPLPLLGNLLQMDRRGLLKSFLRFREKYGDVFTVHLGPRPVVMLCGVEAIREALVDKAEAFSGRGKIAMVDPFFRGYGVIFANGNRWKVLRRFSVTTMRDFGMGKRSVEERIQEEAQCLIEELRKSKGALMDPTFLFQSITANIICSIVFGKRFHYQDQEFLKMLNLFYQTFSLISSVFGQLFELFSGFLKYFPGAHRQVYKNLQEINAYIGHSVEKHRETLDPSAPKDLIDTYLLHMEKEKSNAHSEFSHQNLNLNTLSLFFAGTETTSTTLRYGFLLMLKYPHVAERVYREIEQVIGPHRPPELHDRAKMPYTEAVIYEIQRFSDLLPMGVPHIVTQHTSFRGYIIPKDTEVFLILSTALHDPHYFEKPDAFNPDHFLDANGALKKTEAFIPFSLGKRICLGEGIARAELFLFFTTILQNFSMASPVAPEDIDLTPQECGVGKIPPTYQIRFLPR

[8] = target: Cytochrome P450 3A (Homo sapiens, UniProt P08684+P20815+Q9HB55+P24462); test: Inhibition of CYP3A in human liver microsomes using testosterone as substrate; assay type: ADME, Microsome
[9] = Toxicity in C57BL/6 mouse model assessed as effect on CREAT level at 300 mg/kg/day, ip measured after 6 days post infection (reference value: 0.39 to 0.43); assay type: organism-based; conditions: in vivo, 144 h, time 6 day
[10] = Toxicity in C57BL/6 mouse model assessed as effect on AST level at 300 mg/kg/day, ip measured after 6 days post infection (reference value: 64 to 100); assay type: organism-based; conditions: in vivo, 144 h, time 6 day
[11] = Half life in C57BL/6 mouse plasma at 10 mg/kg, po measured […] post dosing by LC-MS/MS; assay type: ADME, organism-based; conditions: in vivo
[12] = test system: Chikungunya virus; test: Antiviral activity against CHIKV infected in C57BL/6 mouse assessed as footpad swelling at 300 mg/kg/day, ip measured after 6 days post infection (Rvb =40.9+/-12.4); assay type: functional; conditions: time 6 day
[13] = Oral bioavailability in C57BL/6 mouse plasma at 10 mg/kg, measured upto 24 hrs by LC-MS/MS; assay type: ADME, organism-based; conditions: in vivo
[14] = Metabolic stability in CD-1 mouse liver microsomes assessed as half life by HPLC-MS/MS analysis; assay type: ADME, Microsome
[15] = test system: Cav1.2; test: Antagonist activity at hCav1.2 expressed in HEK293 cells by Electrophysiology; assay type: toxicity, cell-based; conditions: human, HEK293 cells expressing hCav1.2
[16] = Cytotoxicity against green monkey Vero 76 cells assessed as reduction in cell viability; assay type: toxicity, cell-based; conditions: chlorocebus sabaeus
[17] = target: Cytochrome P450 2C19 (Homo sapiens, UniProt P33261); test: Inhibition of CYP2C19 (unknown origin); assay type: ADME
Chain of Cytochrome P450 2C19 (P33261 whole entry): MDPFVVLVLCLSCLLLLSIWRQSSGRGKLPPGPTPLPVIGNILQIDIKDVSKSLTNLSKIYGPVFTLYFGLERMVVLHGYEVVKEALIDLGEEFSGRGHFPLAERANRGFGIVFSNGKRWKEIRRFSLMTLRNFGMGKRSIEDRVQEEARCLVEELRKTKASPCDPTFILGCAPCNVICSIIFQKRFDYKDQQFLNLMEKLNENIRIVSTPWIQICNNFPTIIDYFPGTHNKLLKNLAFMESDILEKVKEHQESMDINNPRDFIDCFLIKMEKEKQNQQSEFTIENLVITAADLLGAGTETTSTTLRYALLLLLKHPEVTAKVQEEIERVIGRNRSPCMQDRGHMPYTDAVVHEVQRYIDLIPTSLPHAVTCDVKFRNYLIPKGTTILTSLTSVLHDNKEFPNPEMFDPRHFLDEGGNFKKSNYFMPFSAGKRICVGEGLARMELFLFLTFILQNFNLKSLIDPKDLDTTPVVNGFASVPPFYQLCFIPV

Chain of Polyprotein P1234 (Chikungunya virus (strain S27-African prototype) (CHIKV)) (Q8JUX6 whole entry): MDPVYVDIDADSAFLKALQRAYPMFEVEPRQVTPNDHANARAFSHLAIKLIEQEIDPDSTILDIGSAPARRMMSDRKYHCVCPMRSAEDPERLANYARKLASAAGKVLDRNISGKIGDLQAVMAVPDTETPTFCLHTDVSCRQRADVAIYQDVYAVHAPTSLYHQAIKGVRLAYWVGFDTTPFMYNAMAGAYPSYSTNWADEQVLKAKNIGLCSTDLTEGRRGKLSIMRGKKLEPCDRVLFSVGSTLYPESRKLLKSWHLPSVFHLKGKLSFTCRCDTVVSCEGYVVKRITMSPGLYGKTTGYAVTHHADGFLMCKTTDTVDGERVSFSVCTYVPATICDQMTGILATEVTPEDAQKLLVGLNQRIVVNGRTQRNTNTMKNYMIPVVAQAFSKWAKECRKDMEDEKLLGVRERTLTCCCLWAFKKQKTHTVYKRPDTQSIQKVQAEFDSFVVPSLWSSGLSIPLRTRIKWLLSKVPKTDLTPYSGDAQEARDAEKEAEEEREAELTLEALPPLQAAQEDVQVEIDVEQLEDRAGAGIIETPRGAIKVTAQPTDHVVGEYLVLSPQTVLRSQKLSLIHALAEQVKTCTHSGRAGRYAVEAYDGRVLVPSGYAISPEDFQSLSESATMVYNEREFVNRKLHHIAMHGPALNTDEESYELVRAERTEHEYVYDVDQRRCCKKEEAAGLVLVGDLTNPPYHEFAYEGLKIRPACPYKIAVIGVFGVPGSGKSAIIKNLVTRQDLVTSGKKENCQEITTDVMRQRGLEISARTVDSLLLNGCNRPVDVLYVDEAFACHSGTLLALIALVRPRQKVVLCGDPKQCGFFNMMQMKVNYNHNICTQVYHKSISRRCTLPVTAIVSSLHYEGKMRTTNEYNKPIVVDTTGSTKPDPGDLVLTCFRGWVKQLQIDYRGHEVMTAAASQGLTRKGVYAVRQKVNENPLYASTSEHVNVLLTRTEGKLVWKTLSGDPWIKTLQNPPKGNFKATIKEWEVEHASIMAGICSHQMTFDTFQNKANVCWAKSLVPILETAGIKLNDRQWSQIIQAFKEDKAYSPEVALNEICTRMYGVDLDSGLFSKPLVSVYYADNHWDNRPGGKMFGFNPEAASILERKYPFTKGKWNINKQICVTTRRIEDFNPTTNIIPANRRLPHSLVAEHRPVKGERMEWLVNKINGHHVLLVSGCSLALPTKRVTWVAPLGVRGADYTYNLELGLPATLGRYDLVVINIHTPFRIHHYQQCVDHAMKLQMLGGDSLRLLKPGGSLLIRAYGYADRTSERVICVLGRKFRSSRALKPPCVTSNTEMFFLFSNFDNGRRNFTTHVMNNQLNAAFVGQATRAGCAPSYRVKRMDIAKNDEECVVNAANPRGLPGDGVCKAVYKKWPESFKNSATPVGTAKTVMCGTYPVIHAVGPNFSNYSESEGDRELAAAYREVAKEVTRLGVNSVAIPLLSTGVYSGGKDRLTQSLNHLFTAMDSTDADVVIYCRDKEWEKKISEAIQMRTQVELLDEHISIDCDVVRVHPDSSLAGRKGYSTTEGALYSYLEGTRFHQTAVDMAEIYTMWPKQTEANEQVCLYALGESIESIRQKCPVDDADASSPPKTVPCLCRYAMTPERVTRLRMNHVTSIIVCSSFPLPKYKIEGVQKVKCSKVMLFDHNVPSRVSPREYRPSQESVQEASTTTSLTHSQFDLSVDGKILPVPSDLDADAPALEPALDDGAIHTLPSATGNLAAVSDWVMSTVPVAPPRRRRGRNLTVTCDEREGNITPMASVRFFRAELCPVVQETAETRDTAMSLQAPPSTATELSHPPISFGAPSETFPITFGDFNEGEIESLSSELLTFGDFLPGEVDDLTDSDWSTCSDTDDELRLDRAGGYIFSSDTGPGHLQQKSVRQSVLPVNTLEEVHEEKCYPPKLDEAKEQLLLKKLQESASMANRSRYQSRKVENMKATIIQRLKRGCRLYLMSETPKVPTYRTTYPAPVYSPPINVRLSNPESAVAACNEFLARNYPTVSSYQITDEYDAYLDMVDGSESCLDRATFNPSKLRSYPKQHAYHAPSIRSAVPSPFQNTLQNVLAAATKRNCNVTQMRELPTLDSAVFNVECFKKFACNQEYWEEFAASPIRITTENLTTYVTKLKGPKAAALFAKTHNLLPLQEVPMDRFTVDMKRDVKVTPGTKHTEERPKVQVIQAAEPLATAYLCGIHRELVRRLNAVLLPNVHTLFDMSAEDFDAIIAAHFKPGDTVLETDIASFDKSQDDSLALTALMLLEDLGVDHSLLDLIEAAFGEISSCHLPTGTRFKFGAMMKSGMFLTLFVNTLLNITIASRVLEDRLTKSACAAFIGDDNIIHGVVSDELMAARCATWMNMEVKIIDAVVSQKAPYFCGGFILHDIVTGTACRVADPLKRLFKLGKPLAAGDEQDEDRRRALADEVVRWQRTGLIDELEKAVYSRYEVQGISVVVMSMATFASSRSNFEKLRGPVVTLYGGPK

CC1CCNc2c(C(=O)NC/C=C/S(C)(=O)=O)cccc21 (configuration not stated)
IC50 [1]: > 100 µM | EC50 [2]: 0.39 µM | TDI [3]: Active | inhibition [4]: Dose-Dependent Effect | Activity [5]: 5.8 | Activity [6]: 23.7% | IC50 [7]: > 100 µM | IC50 [8]: < 0.03 µM | Activity [9]: 0.35 mg/dL | Activity [10]: 64 U/L | t1/2 [11]: 0.83 h | Activity [12]: 14.1% | F [13]: 95.6% | t1/2 [14]: > 2 h | IC50 [15]: > 100 µM | CC50 [16]: > 50 µM | IC50 [17]: > 100 µM
